In brackets after ≈: the same amount, converted by molar mass. Where two headings read alike, the source gives them in different places. Marks after values point to notes of the source that are not given here.
What was measured:
S. aureus = experiment: NCCLS MIC/MBC microdilution, S. aureus patient isolates; assay type: cell-based, Staphylococcus aureus; settings: for MBC: read at 48 hr
From the text: (§1) [BBL Mueller Hinton Broth].

[1] = tested on: VRE (Vancomycin resistant Enterococci); experiment: NCCLS MIC/MBC microdilution, VRE; settings: for MIC, VRE enterococcus (E. faecalis): Table 3, 24 h and 48 h same results; for MIC: plate D4, VRE patient isolate
Method: (§2) Standard NCCLS (e.g., National Committee for Clinical Laboratory Standards) methods for determining MIC (e.g., minimum inhibitory concentration) and MBC (e.g., minimum bactericidal concentration) were used. 96 well micro-well plates were placed in a humid chamber and frozen at −70° C. [BBL Mueller Hinton Broth]. Drugs (e.g., antimicrobial compounds of the present invention) were added to a series of wells through 2 fold serial dilutions. 100 μl of a 2×10^−3 M solution of the respective Tx compounds was added to the first well in a series. 100 μl of the inoculum (e.g., microorganism) was added to the well. […] For example, the concentration in well 8 would be less than the concentration of the same drug in well 7. Inoculum (e.g., microorganism) that was added to the wells was prepared from 24 hour growth of an isolate on 5% sheep blood/Columbia agar plates. 5 to 10 representative colonies were then picked from the plates and added to saline and adjusted to 0.5 McFarland turbidity. Next the sample was diluted 1:100 in saline, such that 100 μl of the diluted sample contained approximately 1×10^5 microbes. 100 μl of the diluted sample was added to each well in a series of drug concentrations. Once the cells were added to the wells, the well plates were incubated at 35° C. without CO2 for 48 hrs and at this time the minimum bactericidal concentration was determined.
(§3) The MIC of Tx-118, Tx-147, and Tx-197 for certain Staphylococcus aureus (MRSA), Pseudomonas aeruginosa, Stenotrophomonas maltophilia, and VRE Enterococcus faecalis was determined using standard NCCLS methods. The first well in each series of decreasing drug concentrations contained 1×10^−4 M of a drug. The drug was diluted by serial two fold dilutions through all 12 wells in a series. There was a final DMSO concentration of 2% in the first well and 1% in the second well, etc. Tests with Tx-118 and Tx-197 were performed in triplicate, and tests with Tx-147 were performed in duplicate.

human fibroblasts = experiment: Toxicity study with human fibroblasts; assay type: cell-based
[2] = tested on: Mycobacterium tuberculosis; settings: Table 3
[3] = tested on: chloroquin (CQ) resistant strain of Plasmodium falciparum (Pf); experiment: In vitro efficacy against chloroquin resistant Plasmodium falciparum; assay type: cell-based
Method: Tx-5 and Tx-84 were tested for in vitro efficacy against a chloroquin (CQ) resistant strain of Plasmodium falciparum (Pf). The tests were performed in triplicate at a wide variety of concentrations and evaluated for effect compared with CQ.

[4] = tested on: Stenotrophomonas maltophilia; experiment: NCCLS MIC/MBC microdilution, S. maltophilia; settings: for MIC, Stenotrophomonas maltophilia: Table 3, 24 h and 48 h same results; for MBC: read at 48 hr, 10^−3 kill
Method: as §2, §3

[5] = tested on: Vancomycin resistant S. aureus ATCC700699 and 700788 (VRSA); experiment: NCCLS MIC/MBC microdilution, vancomycin resistant S. aureus; assay type: cell-based, Staphylococcus aureus; settings: for MIC, VRSA (ATCC 700699) / MIC, VRSA (ATCC 700788): Table 3, 24 h and 48 h same results; for MBC: read at 48 hr
From the text: as §1

Enterococcus faecium = experiment: NCCLS MIC/MBC microdilution, Enterococcus (vancomycin sensitive); assay type: cell-based; settings: for MBC: read at 48 hr
From the text: as §1

Candida albicans = experiment: MIC, Candida albicans; assay type: cell-based
E. coli ATCC 25922 = experiment: NCCLS MIC/MBC microdilution, E. coli; assay type: cell-based; settings: plate EC
From the text: as §1

[6] = tested on: MRSA (oxacillin/methicillin resistant S. aureus); experiment: NCCLS MIC/MBC microdilution, MRSA; settings: for MIC, MRSA (methicillin resistant): Table 3, 24 h and 48 h same results; for MBC: read at 48 hr, 10^−3 kill
Method: as §2, §3

Mycobacterium chelonae = experiment: MIC, Mycobacterium chelonae; assay type: cell-based; settings: Table 3
P. aeruginosa = experiment: NCCLS MIC/MBC microdilution, P. aeruginosa; parameters: MIC: key to the marks not given beside the values; settings: for MIC, P. aeruginosa: Table 3, P. aeroginosa is L13 from Table 2
Fusarium = experiment: MIC, Fusarium; assay type: cell-based; settings: Table 3
Aspergillus fumigatus = experiment: MIC, Aspergillus fumigatus; assay type: cell-based; settings: Table 3
[7] = plate S332, S aureus patient isolate
[8] = plate S520, S aureus patient isolate penicillin resistant
[9] = plate C3, S. maltophilia patient isolate
[10] = plate I10, S. maltophilia patient isolate
[11] = plate J11, S. maltophilia patient isolate
[12] = plate 699, VancoR S. aureus ATCC700699
[13] = plate 788, VancoR S. aureus ATCC 700788
[14] = plate E348, Enterococcus faecium patient isolate
[15] = plate E502, Enterococcus faecium ATCC 502806
[16] = plate E523, Enterococcus facium patient isolate
[17] = plate K12, MRSA patient isolate
[18] = plate 37, P. aeruginosa sensitive isolate
[19] = plate ATCC, P. aeruginosa ATCC 27853
[20] = plate L13, P. aeruginosaR (multi-resistant)

c1ccc2c(c1)ccc1c3ccc(NCCCCN4CCCCC4)cc3ccc21 [Tx-5, N-(2′-chrysenyl)-4-(1′-piperidinyl)-butane-1,4-diamine]
MIC (S. aureus; [7]): 0.4 µg/mL (≈ 1.05 µM) | MBC (S. aureus; [7]): 0.7 µg/mL (≈ 1.83 µM) | MIC (S. aureus; [8]): 1.5/1.5 ug/ml | MBC (S. aureus; plate S520, S aureus patient isolate): 1.5/1.5 ug/ml | MIC, VRE enterococcus (E. faecalis) [1]: 3 µg/mL (≈ 7.84 µM) | MIC [1]: 3 µg/mL (≈ 7.84 µM) | Toxicity/human fibroblasts (IC50) (human fibroblasts): 6 µg/mL | MIC, Mycobacterium tuberculosis [2]: 7 µg/mL (≈ 18.3 µM) | IC50 ([3]; CQ resistant P. falciparum, in vitro, triplicate): 154 µM | inhibitory effect against Pf ([3]; in words): weak effect | MIC, Stenotrophomonas maltophilia [4]: 24 to 48 µg/mL | bactericidal activity against Stenotrophomonas maltophilia ([4]; in words, Example 1): some bactericidal activity | MIC [4, 9]: 48/48 ug/ml | MBC ([4]; plate C3, S. maltophilia): 48/48 ug/ml | MIC [4, 10]: 24/24 ug/ml | MBC ([4]; plate I10, S. maltophilia): 24/24 ug/ml | MIC [4, 11]: 48/48 ug/ml | MBC ([4]; plate J11, S. maltophilia): 48/48 ug/ml | MIC, VRSA (ATCC 700699) [5]: 1.5 µg/mL (≈ 3.92 µM) | MIC, VRSA (ATCC 700788) [5]: 3.0 µg/mL (≈ 7.84 µM) | MIC [5, 12]: 1.5 µg/mL (≈ 3.92 µM) | MBC [5, 12]: 12 µg/mL (≈ 31.4 µM) | MIC [5, 13]: 3 µg/mL (≈ 7.84 µM) | MBC [5, 13]: 12 µg/mL (≈ 31.4 µM) | MIC (Enterococcus faecium; [14]): 1.5 µg/mL (≈ 3.92 µM) | MBC (Enterococcus faecium; [14]): 3 µg/mL (≈ 7.84 µM) | MIC (Enterococcus faecium; [15]): 1.5 µg/mL (≈ 3.92 µM) | MBC (Enterococcus faecium; [15]): 6 µg/mL (≈ 15.7 µM) | MIC (Enterococcus faecium; [16]): 1.5/1.5 ug/ml | MBC (Enterococcus faecium; [16]): 1.5/1.5 ug/ml | inhib. of Candida albicans (Candida albicans; @ 15 ug/ml): (90% inhib. @ 15 ug/ml) | MIC, Candida albicans (Candida albicans; Table 3): 30 µg/mL (≈ 78.4 µM) | animal studies (ip), mortality (BDF1′ mice; 35 mg/kg ip): mg/kg (<10% mort) | MIC (E. coli ATCC 25922): 48/48 ug/ml | MBC (E. coli ATCC 25922; read at 48 hr, 10^−3 kill): 48/48 ug/ml | MIC, MRSA (methicillin resistant) [6]: 1.5 to 3 µg/mL | bactericidal activity against Staphylococcus aureus (MRSA) ([6]; in words, Example 1): bactericidal activity | MIC ([6]; plate A1, MRSA patient isolate): 3/3 ug/ml | MBC ([6]; plate A1, MRSA): 3/3 ug/ml | MIC ([6]; plate B2, MRSA patient isolate): 1.5 µg/mL (≈ 3.92 µM) | MIC ([6]; plate E5, MRSA patient isolate): 1.5 µg/mL (≈ 3.92 µM) | MIC ([6]; plate F6, MRSA patient isolate): 1.5/1.5 ug/ml | MBC ([6]; plate F6, MRSA): 1.5/1.5 ug/ml | MIC ([6]; plate G7, MRSA patient isolate): 1.5 µg/mL (≈ 3.92 µM) | MIC ([6]; plate H9, MRSA patient isolate): 3/3 ug/ml | MBC ([6]; plate H9, MRSA): 3/3 ug/ml | MIC [6, 17]: 3 µg/mL (≈ 7.84 µM) | MIC, Mycobacterium chelonae (Mycobacterium chelonae): 5 to 24 µg/mL | MIC, P. aeruginosa (P. aeruginosa): No activity | MIC (P. aeruginosa; [18]): +++ | MIC (P. aeruginosa; [19]): +++ | MIC (P. aeruginosa; [20]): +++

CN1CCN(C(=O)CCC(=O)Nc2cc3c(c4ccccc24)-c2ccc4ccccc4c2C3)CC1 [Tx-37, N-[11′-(13′H-Dibenzo[a,g]-fluorenyl)]-4-(4′N methyl-piperazinyl)-butane-1,4-dicarboxiamide]
MIC (S. aureus; [7]): +++ | MIC (S. aureus; [8]): +++ | MIC, VRE enterococcus (E. faecalis) [1]: 58 µg/mL (≈ 125 µM) | MIC [1]: 58 µg/mL (≈ 125 µM) | Toxicity/human fibroblasts (IC50) (human fibroblasts): 5 µg/mL | MIC, Stenotrophomonas maltophilia [4]: No activity | MIC [4, 9]: +++ | MIC [4, 10]: +++ | MIC [4, 11]: +++ | MIC (Enterococcus faecium; [14]): +++ | MIC (Enterococcus faecium; [15]): +++ | MIC (Enterococcus faecium; [16]): +++ | animal studies (ip), mortality (BDF1′ mice; 30 mg/kg ip): 30 mg/kg (no mortality) | MIC (E. coli ATCC 25922): +++ | MIC, MRSA (methicillin resistant) [6]: 1.8 to 7 µg/mL | MIC ([6]; plate A1, MRSA patient isolate): 7.2 µg/mL (≈ 15.5 µM) | MIC ([6]; plate B2, MRSA patient isolate): 3.6 µg/mL (≈ 7.77 µM) | MIC ([6]; plate E5, MRSA patient isolate): 3.6 µg/mL (≈ 7.77 µM) | MIC ([6]; plate F6, MRSA patient isolate): 1.8 µg/mL (≈ 3.88 µM) | MIC ([6]; plate G7, MRSA patient isolate): 3.6 µg/mL (≈ 7.77 µM) | MIC ([6]; plate H9, MRSA patient isolate): 7.2 µg/mL (≈ 15.5 µM) | MIC [6, 17]: 7.2 µg/mL (≈ 15.5 µM) | MIC, P. aeruginosa (P. aeruginosa): No activity | MIC (P. aeruginosa; [18]): +++ | MIC (P. aeruginosa; [19]): +++ | MIC (P. aeruginosa; [20]): +++

O=C(CCC(=O)N1CCCCC1)Nc1cc2c(c3ccccc13)-c1ccc3ccccc3c1C2 [Tx-38]
MIC (S. aureus; [7]): +++ | MIC (S. aureus; [8]): +++ | MIC, VRE enterococcus (E. faecalis) [1]: No activity | MIC [1]: +++ | Toxicity/human fibroblasts (IC50) (human fibroblasts): 12 ug/ml human fibroblasts | MIC, Stenotrophomonas maltophilia [4]: No activity | MIC [4, 9]: +++ | MIC [4, 10]: +++ | MIC [4, 11]: +++ | MIC (Enterococcus faecium; [14]): +++ | MIC (Enterococcus faecium; [15]): +++ | MIC (Enterococcus faecium; [16]): +++ | animal studies (ip), mortality (BDF1′ mice; 30 mg/kg ip): 30 mg/kg (no mort) | MIC (E. coli ATCC 25922): +++ | MIC, MRSA (methicillin resistant) [6]: No activity | MIC ([6]; plate A1, MRSA patient isolate): +++^a | MIC ([6]; plate B2, MRSA patient isolate): +++ | MIC ([6]; plate E5, MRSA patient isolate): +++ | MIC ([6]; plate F6, MRSA patient isolate): +++ | MIC ([6]; plate G7, MRSA patient isolate): +++ | MIC ([6]; plate H9, MRSA patient isolate): +++ | MIC [6, 17]: +++ | MIC, P. aeruginosa (P. aeruginosa): No activity | MIC (P. aeruginosa; [18]): +++ | MIC (P. aeruginosa; [19]): +++ | MIC (P. aeruginosa; [20]): +++

c1ccc2c3c(ccc2c1)-c1c(cc(NCCCCN2CCCCC2)c2ccccc12)C3 [Tx-112]
MIC, VRE enterococcus (E. faecalis) [1]: 210 µg/mL (≈ 499 µM) | MIC, Fusarium (Fusarium): 3.3 µg/mL (≈ 7.85 µM) | MIC, Aspergillus fumigatus (Aspergillus fumigatus): 6.5 µg/mL (≈ 15.5 µM) | MIC, VRSA (ATCC 700699) [5]: 8 µg/mL (≈ 19 µM) | MIC, VRSA (ATCC 700788) [5]: 8 µg/mL (≈ 19 µM) | MIC, P. aeruginosa (P. aeruginosa): No activity

— patent publication US20050107430A1, “Antimicrobial and antiviral compounds” (priority 2003, published 2005)
